Source: patent EP1542016A1, “PUMA, phosphorylated p53 and p38 map kinase as markers for HIV-1-induced apoptosis in circulating T cells of infected patient” (Institut Gustave Roussy, priority 2003, dated 2005)

Columns and labels:
p53 [1] = experiment: Phosphorylation of p53 (p53S46P, p53S15P) in Env-elicited syncytia; format: cell-based; settings: 36 h coculture, SB203580, SB202190, SB202474 100 nM, LY294002 1 µM, PD98059 5 µM, anti-sense HIPK2 100 nM, Fig. 10
Protocol: Figures 10A and 10C. […] HeLa Env and HeLa CD4 cells were cocultured for 36h in the presence of the indicated agents followed by the determination of the frequency of p53S46P+ syncytia. Results are means of three independent experiments.
Figure 10B. […] Syncytia were generated as in figure 10A, after transfection with anti-sense HIPK2 phosphorothioate oligonucleotides (100 nM) or a scrambled control olignonucleotide (Co.), followed by immunofluorescence detection of p53S46P.
(§1) Transfection with pcDNA3.1 vector only, or p38 DN plasmids (gift by Roger Davis), or HPLC-purified anti-sense HIPK2 phosphorothioate oligonucleotides (100 nM) and control were transfected with Lipofectamine (Invitrogen) into HeLa CD4 cells, 24 h before co-culture with HeLa Env cells. Transfection with pcDNA3.1 vector only or a p53-responsive enhanced green fluorescent (GFP) plasmid (kind gift from Klas Wiman) was performed 24 hours before coculture of HeLa CD4 and HeLa Env cells. The frequency of GFP-expressing cells was assessed by cytofluorometry, on a FACS Vantage (Becton Dickinson) equipped with a 100 µm nozzle, allowing for the analysis of relatively large cells.

Env-elicited syncytia [2] = format: cell-based
Protocol: (§2) HeLa/U937 cell co-cultures were performed at different ratios (6). U937 or Jurkat cells were cultured with recombinant gp120 protein (500 ng/ml).

Env-elicited syncytia [3] = experiment: Karyogamy and cyclin B accumulation in Env-elicited syncytia; format: cell-based; settings: SN50 20 µM, roscovitin 1 µM; Fig. 3D
Protocol: Figure 3D. […] Syncytia were treated with various drugs as in B, and the frequency of karyogamic cells was scored.
as §2

p53 [4] = format: cell-based; settings: syncytia, 24 hours; SN50 20 µM, roscovitin 1 µM; Fig. 3B
Protocol: The frequency of GFP-expressing cells was assessed by cytofluorometry, on a FACS Vantage (Becton Dickinson) equipped with a 100 µm nozzle, allowing for the analysis of relatively large cells.
as §1

Env-induced syncytia = settings: reference (5); cited from earlier work

Question: For COc1cccc(-c2cc(=O)c3ccccc3o2)c1N [PD98059], which “frequency of p53S46P+ syncytia (p53S46P)” value (p53 [1]; 500 mM caffeine) is on record?
Answer: failed to affect

Question: With Oc1ccc(-c2nc(-c3ccc(F)cc3)c(-c3ccncc3)[nH]2)cc1 [SB202190] as the compound, how does the “frequency of p53S46P+ syncytia (p53S46P)” value (p53 [1]; 500 mM caffeine) read?
Answer: strongly reduced

Question: Which “frequency of p53S46P+ syncytia (p53S46P)” value (p53 [1]; 500 mM caffeine) does the source give for CCc1nc(-c2ccc(OC)cc2)[nH]c1-c1ccncc1 [SB202474] here?
Answer: not

Question: With Cn1c(=O)c2c(ncn2C)n(C)c1=O [caffeine] as the compound, how does the “propensity of syncytia to undergo apoptosis” value (Env-elicited syncytia [2]) read?
Answer: did not reduce

Question: And the “frequency of p53S46P+ syncytia (p53S46P)” value (p53 [1]; caffeine)?
Answer: no effect

Question: For CC[C@H](CO)Nc1nc(NCc2ccccc2)c2ncn(C(C)C)c2n1 [roscovitine], which “emergence of karyogamic syncytia (karyogamy)” value (Env-elicited syncytia [3]) is on record?
Answer: inhibiting

Question: What about the “p53-dependent transcription (p53-inducible GFP construct)” value (p53 [4]) of the same compound?
Answer: inhibited

Question: What about the syncytium-dependent cell death (Env-induced syncytia) of the same compound?
Answer: blocked
